Target: T1, USP28 (USP28-5(1-1077)-TEV-6*His; LifeSensors) (Homo sapiens, UniProt Q96RU2)
T1 construct: construct USP28 (USP28-5(1-1077)-TEV-6*His; LifeSensors); TEV cleavage site (C); 6xHis (C); purchased LifeSensors
T1 sequence (Q96RU2 1-1077): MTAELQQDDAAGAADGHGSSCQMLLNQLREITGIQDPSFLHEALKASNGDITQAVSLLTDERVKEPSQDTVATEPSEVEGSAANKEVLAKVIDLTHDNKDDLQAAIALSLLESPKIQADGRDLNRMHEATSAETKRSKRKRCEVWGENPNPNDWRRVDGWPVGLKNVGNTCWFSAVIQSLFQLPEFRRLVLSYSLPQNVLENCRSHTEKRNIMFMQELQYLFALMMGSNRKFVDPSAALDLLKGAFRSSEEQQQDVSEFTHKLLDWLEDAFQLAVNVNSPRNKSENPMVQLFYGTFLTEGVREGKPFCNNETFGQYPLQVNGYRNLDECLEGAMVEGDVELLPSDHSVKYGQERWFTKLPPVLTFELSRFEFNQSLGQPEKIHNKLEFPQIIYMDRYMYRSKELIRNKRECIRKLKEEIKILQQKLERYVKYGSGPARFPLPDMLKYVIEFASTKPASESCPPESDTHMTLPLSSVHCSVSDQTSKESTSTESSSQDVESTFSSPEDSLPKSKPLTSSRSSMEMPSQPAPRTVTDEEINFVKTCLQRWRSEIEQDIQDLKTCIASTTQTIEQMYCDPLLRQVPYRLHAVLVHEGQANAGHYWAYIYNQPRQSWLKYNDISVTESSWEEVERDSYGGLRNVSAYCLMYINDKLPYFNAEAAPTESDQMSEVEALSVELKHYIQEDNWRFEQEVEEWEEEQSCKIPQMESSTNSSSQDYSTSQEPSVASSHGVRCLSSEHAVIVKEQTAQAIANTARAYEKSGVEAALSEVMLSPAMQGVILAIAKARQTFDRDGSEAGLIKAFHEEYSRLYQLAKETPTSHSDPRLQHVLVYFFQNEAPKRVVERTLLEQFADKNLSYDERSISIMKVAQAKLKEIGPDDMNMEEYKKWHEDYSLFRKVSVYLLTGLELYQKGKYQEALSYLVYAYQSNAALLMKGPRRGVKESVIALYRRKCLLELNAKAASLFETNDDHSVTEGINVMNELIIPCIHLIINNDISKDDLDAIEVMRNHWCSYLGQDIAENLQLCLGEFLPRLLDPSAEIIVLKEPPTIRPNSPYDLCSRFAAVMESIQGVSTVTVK
Assay: Ubiquitin-Rhodamine 110 Assay for USP28 Activity, Example A-1(b)
Assay type: biochemical
Conditions: Ubiquitin-Rhodamine 110 assay, Example A-1(b)
Procedure, shortened: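 Single-point screening used 10 μM compound with 90 min room-temperature incubation; follow-up dose-responses (25 μM top, 3-fold) used 75 pM USP28 1-1077 construct, 30 min compound preincubation, 25 nM Ub-Rh110, 20 min reaction, citric acid quench. Rh110 fluorescence normalised to no-enzyme and DMSO controls; IC50 from 4-parameter logistic fit.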

SMILES | USP28 A-1(b) IC50 range
Cc1ccc2c(N)c(C(=O)N[C@H]3COc4cc(N5C[C@@H](N)[C@@H](F)C5)ccc4C3)sc2n1 (single isomer, unassigned) [Example 3-5] | +++ (0.05-0.2 μM)
Cc1ccc2c(N)c(C(=O)N[C@H]3COc4cc(N5C[C@@H](F)[C@@H](N)C5)ccc4C3)sc2n1 (single isomer, unassigned) [Example 3-6] | ++ (0.2-2 μM)

Source: patent US11524966B1 (Valo Early Discovery, Inc., priority 2017, dated 2022)
